Results from patent US20220411495A1, “POSITIVE ALLOSTERIC MODULATORS OF THE CALCIUM-SENSING RECEPTOR” (VIB VZW, priority 2019, published 2022).

T1: loss-of-function mutant CaSR Q459R (Homo sapiens, UniProt P41180, Q459R)
T1 construct: expressed in transfected cells
T1 sequence (P41180 20-1078 Q459R): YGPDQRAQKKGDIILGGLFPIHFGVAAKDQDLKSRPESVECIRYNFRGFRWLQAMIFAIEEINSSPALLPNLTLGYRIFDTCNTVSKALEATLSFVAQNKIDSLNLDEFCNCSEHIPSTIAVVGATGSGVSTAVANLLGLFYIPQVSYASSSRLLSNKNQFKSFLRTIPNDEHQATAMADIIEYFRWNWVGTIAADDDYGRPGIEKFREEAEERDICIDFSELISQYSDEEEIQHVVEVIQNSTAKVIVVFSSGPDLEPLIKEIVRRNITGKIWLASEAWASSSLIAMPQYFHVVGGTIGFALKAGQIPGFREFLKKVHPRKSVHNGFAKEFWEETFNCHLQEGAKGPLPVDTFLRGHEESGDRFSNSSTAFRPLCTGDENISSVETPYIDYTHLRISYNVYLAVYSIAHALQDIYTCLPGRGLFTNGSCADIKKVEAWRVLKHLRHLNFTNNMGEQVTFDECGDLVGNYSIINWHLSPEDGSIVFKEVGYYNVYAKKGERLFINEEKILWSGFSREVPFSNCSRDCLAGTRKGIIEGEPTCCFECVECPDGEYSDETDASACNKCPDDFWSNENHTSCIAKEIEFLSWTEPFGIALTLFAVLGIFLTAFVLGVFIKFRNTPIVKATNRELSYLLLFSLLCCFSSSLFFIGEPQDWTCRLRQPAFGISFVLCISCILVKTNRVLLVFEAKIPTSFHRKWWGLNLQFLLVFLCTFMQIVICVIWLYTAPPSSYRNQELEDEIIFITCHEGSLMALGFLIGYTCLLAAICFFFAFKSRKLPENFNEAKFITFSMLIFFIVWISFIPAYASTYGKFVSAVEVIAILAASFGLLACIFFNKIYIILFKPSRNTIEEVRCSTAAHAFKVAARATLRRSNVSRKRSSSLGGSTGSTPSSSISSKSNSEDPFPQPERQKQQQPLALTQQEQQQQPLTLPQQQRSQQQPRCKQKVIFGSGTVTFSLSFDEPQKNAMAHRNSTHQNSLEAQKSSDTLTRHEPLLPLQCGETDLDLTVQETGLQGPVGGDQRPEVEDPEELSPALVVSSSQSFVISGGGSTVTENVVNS

T2: CaSR 7-transmembrane domain allosteric binding site (Homo sapiens, UniProt P41180)
T2 sequence (P41180 20-1078): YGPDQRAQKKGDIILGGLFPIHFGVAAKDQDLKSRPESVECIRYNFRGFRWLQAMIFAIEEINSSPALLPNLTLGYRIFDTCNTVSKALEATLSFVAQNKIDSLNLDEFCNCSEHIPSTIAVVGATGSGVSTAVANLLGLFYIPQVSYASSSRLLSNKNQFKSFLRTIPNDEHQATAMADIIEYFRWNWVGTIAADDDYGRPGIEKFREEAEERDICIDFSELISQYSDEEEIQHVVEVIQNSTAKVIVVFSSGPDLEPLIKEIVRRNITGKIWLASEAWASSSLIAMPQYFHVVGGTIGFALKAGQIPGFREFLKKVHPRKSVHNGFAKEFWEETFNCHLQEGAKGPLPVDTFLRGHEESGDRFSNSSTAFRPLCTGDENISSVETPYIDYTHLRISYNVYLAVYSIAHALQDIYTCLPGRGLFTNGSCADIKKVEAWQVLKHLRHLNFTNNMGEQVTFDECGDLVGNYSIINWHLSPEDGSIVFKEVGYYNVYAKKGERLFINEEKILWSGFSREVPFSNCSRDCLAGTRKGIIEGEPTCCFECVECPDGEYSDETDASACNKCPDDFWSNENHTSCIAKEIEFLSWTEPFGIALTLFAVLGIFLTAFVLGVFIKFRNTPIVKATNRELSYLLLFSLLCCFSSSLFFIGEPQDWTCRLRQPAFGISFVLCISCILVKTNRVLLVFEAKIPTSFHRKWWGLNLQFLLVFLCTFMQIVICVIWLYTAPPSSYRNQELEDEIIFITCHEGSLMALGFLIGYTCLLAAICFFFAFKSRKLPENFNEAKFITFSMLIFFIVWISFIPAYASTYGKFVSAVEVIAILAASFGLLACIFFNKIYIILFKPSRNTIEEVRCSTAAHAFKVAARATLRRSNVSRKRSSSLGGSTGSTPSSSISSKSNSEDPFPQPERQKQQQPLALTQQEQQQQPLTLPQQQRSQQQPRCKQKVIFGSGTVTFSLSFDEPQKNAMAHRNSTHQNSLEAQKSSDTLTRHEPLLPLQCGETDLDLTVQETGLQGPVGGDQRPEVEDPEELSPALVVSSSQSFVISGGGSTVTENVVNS


Legend:
[1] = target: T1, loss-of-function mutant CaSR Q459R; assay: IP1 accumulation assay, Ca2+ concentration-response curve of CaSR Q459R; type: cell-based; conditions: preliminary experiment; for Concentration at which the PAM effect is initiated: Ca2+ concentration-response curve; for Effect on potency for Ca2+ in CaSR Q459R: increasing PAM concentrations
Experimental: In comparison with loss-of-function mutant S170A, Q459R is a naturally occurring loss-of-function mutant that has previously been associated with familial hypocalciuric hypercalcemia (FHH). The effect of increasing concentrations of CaSR Nb4 or the clinically used PAM cinacalcet on the Ca^2+ concentration-response curve were measured with the IP1 accumulation assay. […] The PAM effect of CaSR Nb4 (0.04 μM) is initiated at a much lower concentration than for cinacalcet (5 μM).
Inositol monophosphate (IP1) accumulation was measured using the commercially available HTRF® IP1 accumulation kit (Cisbio Bioassays, Codolet, France) and an EnVision multimode plate reader (PerkinElmer, Waltham, Mass., USA). Unless stated otherwise, the cells were washed once with 100 μL/well assay buffer and stimulated for 30 minutes at 37° C. with 50 μL/well ligand(s) diluted in assay buffer supplemented with 20 mM LiCl. Following stimulation, the cells were washed once with 100 μL/well and lysed for 30 minutes at room temperature with 30 μL/well lysis buffer provided with the kit. The lysed cells were diluted 1:2 with assay buffer after which 10 μL/well was pipetted to a white 384-well OptiPlate (PerkinElmer, Waltham, Mass., USA). Next, 10 μL of a detection solution consisting of 2.5% IP1-d2 conjugate and 2.5% anti-IP1 antibody diluted in assay buffer was added to each well. Fluorophore emissions were measured after the plate was stored in the dark for 1 h. The 615/665 nm emission ratios measured upon excitation at 340 nm were converted to IP1 concentrations with an IP1 standard curve according to the manufacturer's instructions.

[2] = target: T2, CaSR 7-transmembrane domain allosteric binding site; assay: [3H]evocalcet radioligand displacement
Experimental: For the seven different nanobodies with potencies in the 10 to 600 nM range, further characterization of their recognition site on the CaSR antigen was performed, since the identification of the nanobody binding-sites at the CaSR is key to understand their interaction and mode-of-action at a molecular and structural level, and will further aid in the development of second-generation nanobodies with enhanced pharmacological parameters. Nanobodies belonging to each family of the five different nanobody families are expected to interact with distinct regions of the CaSR.

Row | Concentration at which the PAM effect is initiated [1] [µM] | Effect on potency for Ca2+ in CaSR Q459R [1] | Displacement of [3H]evocalcet binding [2] | Molecule
1 | 5 | able to increase the potency for Ca^2+ | did displace | C[C@@H](NCCCc1cccc(C(F)(F)F)c1)c1cccc2ccccc12 [cinacalcet, reference compound]
2 | 0.04 | able to increase the potency for Ca^2+ | do not displace | Nb4: llama-derived CaSR-specific nanobody acting as PAM, SEQ ID NO:5 (protein, CaSR Nb4) VHH: QVQLVESGGGLVQAGGSLRLSCAASGRTFSTYRMGWFRQGLGKEREFVAAITANGVRTFYTDSVKGRFTISRDNAKNTLYLQMNSLQPDDTAVYLCAARRKGIFTVQQAQDITDWDYWGQGTQVTVSS
